Data: patent US12691183B2, “Methods of making and using nanoparticles for treatment of bacterial biofilm” (Brown University, priority 2022, dated 2026)
Where a name gives a salt, the structure may show the parent alone.

How the values were obtained:
[1] = test system: V. vulnificus; assay: MIC microdilution assay against planktonic bacteria; type: cell-based; settings: Vibrio vulnificus, 16-18 hours, Doxy or loaded Doxy concentration
Method: The minimum inhibitory concentrations (MICs) of NPs against V. vulnificus were determined using the microdilution assay as previously reported. See T. Gwisai, N. R. Hollingsworth, S. Cowles, N. Tharmalingam, E. Mylonakis, B. B. Fuchs and A. Shukla, Biomedical Materials, 2017, 12, 045010; D. Alkekhia and A. Shukla, Journal of Biomedical Materials Research Part A, 2019, 107, 1324-1339. Free Doxy and Doxy loaded NPs were diluted 2-fold in LB in 96-well plates to obtain concentrations of Doxy or loaded Doxy ranging from 0.03-4.0 μg/mL. V. vulnificus in LB media in its logarithmic growth phase was added to each well at a final concentration of 1×10^5 colony forming units (CFU)/mL. Positive control (PC) of bacteria cultured in LB only and negative control (NC) of LB without bacteria were included. After 16-18 hours of shaking (100 rpm) at 37° C., OD600 was measured using a plate reader. The normalized bacteria density (%) was calculated as follows: […]

[2] = test system: V. vulnificus; assay: Ex vivo pig skin infection model; type: cell-based
Method: Frozen porcine skin tissue was thawed and washed with 1×PBS. A biopsy punch (8 mm) was used to create tissue sections from freshly thawed tissue. A 1.5-mm deep well was created in the center of each of these skin samples using a smaller 3-mm biopsy punch. The tissue pieces were sterilized by immersing in 70% (v/v) ethanol for 2 hours and drying for 30 minutes in a CellGard™ Energy Saver class II, type A2 biosafety cabinet (NuAire, Plymouth, MN). The sterile tissue was then placed on soft TSB agar plates containing 0.5% (w/v) agar with 100 μg/mL vancomycin. Note that vancomycin was included as a common antibiotic against gram-positive to prevent contamination by non-V. vulnificus bacteria. The skin was then infected by adding 10 μL of V. vulnificus suspension (OD600=0.1) in the 3 mm diameter well in each sample. The inoculated skin pieces were incubated for 48 hours at 37° C. in a humidified chamber. The tissue samples were transferred to a new agar plate every 24 hours. At 48 hours, 15 μL of Doxy or HA-CS-Doxy-GNP at a Doxy concetration of 10, 50 or 100 μg/mL was added to the infected skin samples and incubated for a further 24 hours. Controls of tissue inoculated with bacteria treated with LBS at pH 5.5 only and tissue without bacteria treated with LBS at pH 5.5 were included as controls. […]

[3] = test system: V. vulnificus biofilm; assay: Eradication of mature biofilm, crystal violet assay; type: cell-based; settings: reduces initial biomass of 48 h mature biofilm by 90%, 24 h treatment
Method: Unless otherwise noted, all biofilm experiments utilized the following procedure for the formation of a 48 h matured biofilm. V. vulnificus inoculated LB medium was incubated for 18 h with shaking (100 rpm) at 37° C. This bacteria suspension was dilute 1:500 (v/v) in LB media supplemented with 2% w/v NaCl (LB S) at pH 5.5. The optical density of the bacteria suspension at 600 nm (OD600) was monitored overtime. Once in its logarithmic growth phase (OD600=0.1, which is ~1.5×10^7 CFU/mL), biofilms were formed by static incubation of bacteria at 37° C. for 48 hours either in chamber slides of multi-well plates. Every 24 hours, the biofilms were gently washed three times with 1×PBS and add fresh LBS was added.
(§1) The effect of treatment with free Doxy, Doxy-GNP, CS-Doxy-GNP, and HA-CS-Doxy-GNP of 48 h aged V. vulnificus biofilms was assessed by examining biofilm morphology and quantifying biomass and cell viability. Morphology assessment via ESEM, LIVE/DEAD viability staining, colony enumeration and crystal violet staining were performed after incubation of the biofilms with the various treatment groups at a Doxy concentration of 50 μg/mL in 1×PBS or with a 1×PBS control for 24 hours at 37° C.
Biofilm biomass was assessed for 48 h mature biofilms formed in 96-well plates. […] Following 24 hours of incubation, the biofilm biomass was quantified using crystal violet staining as described earlier.

[4] = test system: V. vulnificus biofilm; assay: Inhibition of biofilm formation, crystal violet staining; type: cell-based; settings: inhibits biofilm formation by 80%, 24-hour incubation
Method: The investigate the effect of free Doxy and Doxy-loaded NPs on V. vulnificus biofilm formation, V. vulnificus was prepared for biofilm formation. When adding the bacteria in its logarithmic growth phase to 96-well plates, free Doxy or Doxy-loaded NPs were added simultaneously at varying concentrations. Bacteria lacking Doxy treatment were included as a PC and LBS without bacteria was included as a NC. Following a 24-hour incubation in static conditions, the biofilm biomass was quantified using crystal violet staining. Briefly, the supernatant media was gently removed, and biofilms were washed three times with 1×PBS. Next biofilms were stained with 200 μL 0.1% (w/v) crystal violet in 1×PBS for 15 minutes, followed by three 1×PBS washes. The stain was eluted by incubation with 200 μL of 100% ethanol with shaking (100 rpm) for 2 min at RT. The absorbance at 570 nm (OD570) was measured using a plate reader. Normalized biofilm biomass was calculated as follows: [formula]

[5] = test system: HUVEC; assay: CCK-8 cytotoxicity assay, HUVEC; type: cell-based, human; settings: 50 μg/mL Doxy, 24 hour
Method: (§2) The cytotoxicity of each NP formulation was evaluated for HUVEC and […] using a CCK-8 viability assay. Briefly, HUVEC and NIH 3T3 cells were cultured at a density of ~5000 cells/cm^2 in EGM-2 endothelial cell growth medium and DMEM supplemented with 10% (v/v) FBS and 1% (v/v) penicillin/streptomycin, respectively at 37° C. with 5% CO2. After 24 hours, cells were treated with Doxy, Doxy-GNPs, CS-Doxy-GNP and HA-CS-Doxy-GNP at a Doxy concentration of 50 μg/mL in the respective media. Cells treated with media only and wells containing no cells or NPs were included as PCs and NCs, respectively. Following a 24 hour incubation, the media was removed, cells were rinsed with 1×PBS three times and 10 μL of CCK-8 solutions was added to each well. After incubation for 4 hours at 37° C. with 5% CO2, the absorbance was read at 450 nm (OD450) using a plate reader. Normalized cell viability was calculated using the following equation. [formula]

[6] = test system: V. vulnificus biofilm; assay: Colony counting assay of treated mature biofilm; type: cell-based; settings: 50 μg/mL Doxy, 24 h
Method: as §1, with “C. Colony enumeration was also conducted by first dispersing biofilms formed in 48-well plates by sonication following treatment. Each sample was then serially diluted in LB, and […] of the dilution was plated onto LB agar plates. Agar plates were imaged and CFU were counted following incubation for 24 h at 37° C.” for “C.”

[7] = test system: NIH 3T3 cells; assay: CCK-8 cytotoxicity assay, NIH 3T3; type: cell-based, mouse; settings: NIH 3T3, 50 μg/mL Doxy, 24 hour
Method: as §2

MIC [1]: 0.5 µg/mL
Compound: C[C@H]1c2cccc(O)c2C(=O)C2=C(O)[C@]3(O)C(=O)C(C(N)=O)=C(O)[C@@H](N(C)C)[C@@H]3[C@@H](O)[C@@H]21 [Doxy, doxycycline hydrochloride]
number of living bacterial cells compared with untreated pig skin ([2]; 50 μg/mL or 100 μg/mL Doxy, 24 hours): significantly reduced
mean value of CFU/mL relative to untreated samples (100%) ([2]; 2 days infection, 24 hours treatment, 100 μg/mL Doxy): 16.42%
MBEC90 [3]: about 50 μg/mL
MBIC80 [4]: about 16 μg/mL
cell viability [5]: about 60%
reduction in CFU compared to no treatment control [6]: 2 log reduction
cell viability [7]: about 70%
